Tests used:
[1] = tested on: CAG multiple myeloma cells; test: multiple myeloma transwell migration towards SDF-1α; type: cell-based; conditions: pretreatment 8 h, transmigration 6 h
Experimental: (§1) Multiple myeloma cell chemotaxis was performed towards a SDF-1α in a modified Boyden chamber consisting of a cell culture insert (4.26 mm diameter, 8-μm pore polyester membrane) seated in each well of a 96-well plate (HTS Transwell-96 System, Corning). Briefly, multiple myeloma cells were grown as subconfluent cultures then starved for 24 hours in serum-free IMDM medium. Single-cell suspensions were prepared by mechanical dissociation, then the cells were counted and a total of 5.10^4 cells suspended in serum-free IMDM medium were seeded into the upper chamber, then positioned in a 96-well plate, containing medium with or without SDF-1α (at 200 ng/mL). […] Migrastatin analogs or DMSO (vehicle) were added to the medium at 0.5% in both chambers. Migration assays were carried out for 6 hours in a humidified incubator at 37° C. with 5% CO2. At the assay endpoint, the inserts were removed and the migrating cells were counted in the well. The migration in response to the test condition was calculated relative to the DMSO vehicle control.

[2] = tested on: H929 multiple myeloma cells; test: as above; type: cell-based; conditions: pretreatment 8 h, transmigration 6 h
Experimental: as §1

[3] = tested on: multiple myeloma (RPMI8226, MM1S, ARP-GL, CAG-GL, OPM2-GL, SKO-007-GL, U266-GL, MM1R cells); test: toxicity by alamarBlue, multiple myeloma cell lines; type: cell-based, human; conditions: mean of 8 cell lines
Experimental: (§2) The toxicity of compounds 42-45 and their IC50 was determined on a panel of human tumor cell lines of multiple myeloma (RPMI8226, MM1S, MM1R, ARP-GL, CAG-GL, OPM2-GL, SKO-007-GL, U266-GL,) and lung cancer (H299-GL, H522-GL, H647-GL, A549-GL, A549-GL, HI993, H1075-GL, HI373, H17030) origin. Tumor cells were dissociated into a single-cell suspension by Trypsin/Collagenase IV treatment and 500 cells per well were aliquoted into each well of 384 microwell plates in 50 μl of RPMI medium with 10% FCS. Compounds 42-45 were dissolved in DMSO and serially diluted in RPMI medium plus 10% FCS and added (1 mM to 1 nM) to quadruplicate wells containing tumor cells. Dilutions of DMSO without compound were used as a control. After 18 hrs or 2 days, the cultures were pulsed with 6 μl of alamarBlue® (Invitrogen Inc. Grand Island, N.Y.) and incubated overnight. The alamarBlue® provides a cell growth indicator based on detection of metabolic activity. The assay system incorporates an oxidation-reduction indicator that both fluoresces and changes color in response to chemical reduction of growth medium resulting from cell growth. The fluorescence intensity was measured using a Synergy H1 Microplate Reader (Biotek Inc, Winooski, VT) and a dose-response curve established for IC50 determination.

[4] = tested on: lung cancer (H299-GL, H522-GL, H647-GL, A549-GL, H1993, H1075-GL, H1373-GL H1703 cells); test: toxicity by alamarBlue, lung cancer cell lines; type: cell-based; conditions: mean of 8 cell lines
Experimental: Dilutions of DMSO without compound were used as a control. After 18 hrs or 2 days, the cultures were pulsed with 6 μl of alamarBlue® (Invitrogen Inc. Grand Island, N.Y.) and incubated overnight. The alamarBlue® provides a cell growth indicator based on detection of metabolic activity. The assay system incorporates an oxidation-reduction indicator that both fluoresces and changes color in response to chemical reduction of growth medium resulting from cell growth. The fluorescence intensity was measured using a Synergy H1 Microplate Reader (Biotek Inc, Winooski, VT) and a dose-response curve established for IC50 determination.

[5] = tested on: human tumor cell lines of multiple myeloma and lung cancer; test: toxicity by alamarBlue, whole panel; type: cell-based
Experimental: as §2

Row | SMILES | % of migration relative to DMSO control ([1]; 5 μM) [%] | % of migration relative to DMSO control ([1]; 250 μM) [%] | % of migration relative to DMSO control ([2]; 5 μM) [%] | % of migration relative to DMSO control ([2]; 250 μM) [%] | Estimated lethal doses (LD50) ([3]; 18 h exposure) [µM] | Estimated lethal doses (LD50) ([3]; 48 h exposure) [µM] | Estimated lethal doses (LD50) ([4]; 18 h exposure) [µM] | Estimated lethal doses (LD50) ([4]; 48 h exposure) [µM] | IC50 [5] [µM]
1 | COC(=O)CO[C@H]1[C@H](C)/C=C(/C)COCCCCC/C=C/[C@@H]1OC [Compound 42] | 93.63 | 0.23 | 91.03 | 7.08 | 515.2 | 476.4 | 741.2 | 602.7 | 300 to 795
2 | CO[C@H]1/C=C/CCCCCOC/C(C)=C\[C@@H](C)[C@@H]1OCCO [Compound 43] | 82.04 | 0.71 | 52.26 | 0.98 | 530.8 | 406.1 | 523.9 | 510.7 | 300 to 795
3 | CCNC(=O)O[C@H]1[C@H](C)/C=C(/C)COCCCCC/C=C/[C@@H]1OC [Compound 45] | 54.48 | 0.58 | 62.38 | 5.51 | 275.6 | 217.3 | 446.9 | 446.8 | 300 to 795
4 | CNC(=O)CO[C@H]1[C@H](C)/C=C(/C)COCCCCC/C=C/[C@@H]1OC [Compound 44] | 86.22 | 0.05 | 81.48 | 4.06 | 182.5 | 210.6 | 299.7 | 316.7 | 300 to 795

— patent US9303009B2, “Migrastatins and uses thereof” (Sloan-Kettering Institute for Cancer Research, priority 2011, dated 2016)
